# Results reported in patent US6852863B2, “Metabolites of (3-{[4-tert-butyl-benzyl)-(pyridine-3-sulfonyl)-amino]-methyl}-phenoxy)-acetic acid” (Pfizer Inc., priority 2002, dated 2005).
# Assays:
# [1] = Radiolabelled mass balance and metabolic profiles of 14C-parent in Sprague Dawley rats; assay type: in vivo; settings: single 15 mg/kg I.V. dose of 14C-parent
# Procedure: To determine the radiolabelled mass balance and metabolic profiles of (3-{[4-tert-butyl-benzyl)-(pyridine-3-sulfonyl)-amino]-methyl}-phenoxy)-acetic acid in urine, feces, bile and plasma of Sprague-Dawley rats after I.V. administration of a single 15 mg/kg dose of ^14C-(3-{[4-tert-butyl-benzyl)-(pyridine-3-sulfonyl)-amino]-methyl}-phenoxy)-acetic acid.
# A group of three male and three female jugular-vein cannulated Sprague-Dawley rats (230-240 g) was housed individually in stainless steel metabolic cages designed to collect urine and feces and administered intravenously a single, 15 mg/kg, dose of ^14C-(3-{[4-tert-butyl-benzyl)-(pyridine-3-sulfonyl)-amino]-methyl}-phenoxy)-acetic acid. […]
# The radioactivity in urine, bile and plasma was determined by liquid scintillation counting. Aliquots of urine (0.1 g), bile (0.025 g) or plasma (0.025 g) were mixed with 5 ml of Ecolite (+) scintillation cocktail and counted in a Wallac #1409 liquid scintillation counter (Gaithersburg, Md.). Fecal samples at each time point were homogenized with water, and the total weights of the fecal homogenate were recorded. […]
# The radioactivity in the dose was established as 100% of the total radioactivity. The radioactivity at each sampling time for urine and feces was defined as the percentage of dose excreted in the respective matrices. […]
# [2] = Metabolism of 14C-parent in monkey liver microsomes; assay type: in vitro ADME; settings: 20 μM 14C-parent, NADPH, 30 minutes, 37° C.; HPLC radiochromatogram peak
# Procedure: (§1) Human (HL-mix 12), rat, monkey and dog liver microsomes were prepared by differential centrifugation using standard procedures. Prior to use, liver microsomes were thawed on ice and reconstituted using 100 mM potassium phosphate pH 7.4. [^14C]-(3-{[4-tert-butyl-benzyl)-(pyridine-3-sulfonyl)-amino]-methyl}-phenoxy)-acetic acid was dissolved 100 mM potassium phosphate pH 7.4 at a final substrate concentration of 20 μM. Samples were pre-incubated for 3 min with microsomes (CYP 450; 0.5 μM) at 37° C. in a shaking water bath. Incubations were initiated with the addition of 100 μl cofactor (1.1 mM NADPH, 10 mM MgCl2) per 1 ml of incubation mixture. Incubations were stopped after 30 minutes by the addition of an equal volume of cold acetonitrile.
# (§2) Metabolite quantification was performed by measuring the areas of individually separated HPLC peaks using the β-RAM (IN/US, Win-flow). […]
# (§3) Identification of the metabolites was performed using a Finnigan TSQ 7000 triple quadrupole mass spectrometer equipped with an API-2 electrospray interface. […] The β-RAM response was recorded as a real time analog signal by the MS data collection system. The collected data from the radioactivity and MS detectors were separated by the dwell volume of flow from the MS to the radioactivity detector (corresponding to a dwell time of about 0.2 min.). […]
# [3] = Metabolism of 14C-parent in rat liver microsomes; assay type: in vitro ADME; settings: 20 μM 14C-parent, NADPH, 30 minutes, 37° C.; HPLC radiochromatogram peak
# Procedure: as §1, §2, §3
# [4] = Metabolism of 14C-parent in human liver microsomes; assay type: in vitro ADME; settings: 20 μM 14C-parent, NADPH, 30 minutes, 37° C.; HPLC radiochromatogram peak
# Procedure: as §1, §2, §3
smiles,measurement,setting,value
"CC(C)(CO)c1ccc(CN(Cc2cccc(OCC(=O)O)c2)S(=O)(=O)c2cccnc2)cc1 [Metabolite M4, (3-{[[4-(2-hydroxy-1,1-dimethyl-ethyl)-benzyl]-(pyridine-3-sulfonyl)-amino]-methyl}-phenoxy)-acetic acid]","Percentage of metabolite formed in vivo, females (basis of % not stated)",[1]; female rats,6.5%
same,"Percentage of metabolite formed in vivo, males (basis of % not stated)",[1]; male rats,19.7%
same,"Percent of Radioactivity, Monkey liver microsomes",[2],47.3%
same,"Percent of Radioactivity, Rat liver microsomes",[3],4.38%
same,"Percent of Radioactivity, Human liver microsomes",[4],26.5%
